Values quoted from earlier work as cited in US20050124592A1 (priority 2002, published 2005).
Like-named read-outs stand apart in the source and are kept apart here.

How the values were obtained:
progesterone receptor = target: T1, progesterone receptor (Homo sapiens, UniProt P06401)
T1 sequence (P06401 1-933): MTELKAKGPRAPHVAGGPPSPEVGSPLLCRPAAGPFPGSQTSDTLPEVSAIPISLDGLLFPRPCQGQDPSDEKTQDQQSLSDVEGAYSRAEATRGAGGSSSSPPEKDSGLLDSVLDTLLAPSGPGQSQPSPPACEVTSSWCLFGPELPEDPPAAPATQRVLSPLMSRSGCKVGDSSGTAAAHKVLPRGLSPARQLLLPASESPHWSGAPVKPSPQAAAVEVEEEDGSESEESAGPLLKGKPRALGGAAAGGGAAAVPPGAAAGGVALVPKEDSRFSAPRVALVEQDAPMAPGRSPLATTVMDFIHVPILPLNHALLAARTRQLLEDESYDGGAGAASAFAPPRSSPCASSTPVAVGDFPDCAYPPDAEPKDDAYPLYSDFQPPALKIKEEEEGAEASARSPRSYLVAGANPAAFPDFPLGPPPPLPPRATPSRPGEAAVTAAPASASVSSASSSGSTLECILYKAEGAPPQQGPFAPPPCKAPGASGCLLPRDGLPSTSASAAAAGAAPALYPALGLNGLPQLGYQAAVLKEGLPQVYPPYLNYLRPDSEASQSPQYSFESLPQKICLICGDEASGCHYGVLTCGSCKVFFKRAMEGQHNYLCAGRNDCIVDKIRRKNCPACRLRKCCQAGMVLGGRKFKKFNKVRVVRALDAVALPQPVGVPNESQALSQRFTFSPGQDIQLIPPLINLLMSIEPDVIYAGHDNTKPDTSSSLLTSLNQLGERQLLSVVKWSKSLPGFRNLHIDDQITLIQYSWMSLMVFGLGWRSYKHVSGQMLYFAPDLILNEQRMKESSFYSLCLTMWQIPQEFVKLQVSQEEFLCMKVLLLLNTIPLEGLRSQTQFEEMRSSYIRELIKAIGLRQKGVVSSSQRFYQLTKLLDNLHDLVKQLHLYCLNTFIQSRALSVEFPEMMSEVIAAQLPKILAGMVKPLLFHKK

In the case of `C#C[C@]1(O)CC[C@H]2[C@@H]3[C@H](C)CC4=C(CCC(=O)C4)[C@H]3CC[C@@]21C` [tibolone, (7α,17α)-17-hydroxy-7-methyl-19-nor-17-pregn-5(10)-en-20-yn-3-one], the estrogenic activity (estrogen receptor) is given as “hardly has an estrogenic activity”, the estrogenic activity (estrogen receptor; listed as Tibolone) is given as “weak” and the progestagenic activity (progesterone receptor) is given as “weak”.
